Measurements from patent US10941126B2, “Bridged bicycloalkyl-substituted aminothiazoles and their methods of use” (Temple University—Of The Commonwealth System of Higher …, priority 2017, dated 2021).

Assays:
Format in all cases: cell-based, human
[1] = system: YB5 cells; assay: GFP reactivation in YB5 cells (flow cytometry)
From the text: To screen the compounds of the invention for epigenetic anti-cancer activity the YB5 cell-based system, which is derived from the human colon cancer cell line SW48, was used (Si et al., 2010, Cancer Res. 70:6968-6977; Raynal et al., 2012, Cancer Res. 72:1170-1181). YB5 cells contain a single insertion of cytomegalovirus (CMV) promoter driving green fluorescent protein (GFP) gene. GFP expression is silenced in >99.9% of YB5 cells by epigenetic mechanisms. In YB5 cells, the inserted GFP gene behaves similarly to endogenous tumor suppressor genes (TSGs) silenced by epigenetic mechanisms, and it can be reactivated by epigenetic anti-cancer agents such as DNA methylation inhibitors and/or HDAC inhibitors such as depsipeptide (Si et al., 2010, Cancer Res. 70:6968-6977; Raynal et al., 2012, Cancer Research, 72:1170-1181; Wu et al., 2008, Mol. Cell Biol, 28:3219-3235). Thus, reactivation of GFP expression and the resulting fluorescence is a measure of epigenetic anti-cancer activity.
The following procedure may be used to identify compounds of useful in the invention. YB5 cells cultured in L-15 medium supplemented with 10% fetal bovine serum and 1% P/S are treated for 24 hours with varying concentrations (50 nM, 100 nM, 500 nM, 1 μM, 5 μM, 10 μM, 25 μM, and 50 μM) of test compounds. After treatment, cells are trypsinized and re-suspended in cell culture media with propidium iodide (PI) to stain dead cells. Reactivation of GFP is measured using flow cytometry to identify the GFP positive population. The relative activities are expressed as the percent of the response compared to treatment with 20 nM HDACi depsipeptide for 24 hours. YB5 cells are grown in 1% CO2 atmosphere at 37° C.
NDL-3040 compound library consists of 3040 chemically diverse compounds that are semi-natural, derived from natural compounds, or synthetic compounds that are natural-compound-like. The small molecules were arrayed in 96-well plates as 10 mM stocks in 100% DMSO and were purchased from TimTec Inc. An aminothiazole analog library (93 small molecules) was also purchased from the same vendor and was in a 96-well plate format as 10 mM stocks in 100% DMSO. The 3040 compounds were screened at 25 μM for 24 hr. All plates were kept at −80° C. before use. YB5 cells growing in log phase (70-80% confluency) in 96-well plates were used. Each experimental 96-well plate contained 80 different compounds. Compounds were dispensed using an INTEGRA VIAFLO96 96-well pipette. After a 24 hr drug treatment, cells were trypsinized for 10 mins and re-suspended in L-15 medium containing propidium iodide (PI) to stain for dead cells. A total of 10000 cells per well were analyzed using Millipore Guava flow cytometer (EMD, Millipore). GFP positive percentage was calculated by excluding all the PI positive cells. After finishing the screening, the average Z-factor
For drug screening and dose response validations, GFP positive cells were detected by Millipore Guava flow cytometer (EMD, Millipore). Cell cycle analysis was performed using BD FACSCalibur™ by propidium iodide staining four days after drug treatment. Sub-G1 population percentage was also included to measure apoptotic cell proportion. Data were analyzed using FlowJo software version 10.2. For the cell differentiation analysis, cells were washed and stained with propidium iodide (PI), CD11 b (BD Biosciences, #562793) and the isotype control IgG (BD Biosciences, #555748). Flow cytometry analysis was performed on a Millipore Guava flow cytometer (EMD, Millipore). For the ID8 in vivo experiments, ascites was drained from 5-10 mice per group and incubated in ACK buffer (Thermo Fisher) to lyse red blood cells for 10 minutes, then washed. Ascites from each mouse was individually lysed and prepared for flow cytometry. Mononuclear cells collected were cultured for 4 hours in RPMI with 5% Fetal Bovine Serum and in the presence of Cell Stimulation Cocktail (plus protein transport inhibitors; eBioscience). […]

[2] = system: YB5; assay: Cell cycle analysis and sub-G1 (propidium iodide); conditions: four-day drug treatment
Procedure: For drug screening and dose response validations, GFP positive cells were detected by Millipore Guava flow cytometer (EMD, Millipore). Cell cycle analysis was performed using BD FACSCalibur™ by propidium iodide staining four days after drug treatment. Sub-G1 population percentage was also included to measure apoptotic cell proportion. Data were analyzed using FlowJo software version 10.2. For the cell differentiation analysis, cells were washed and stained with propidium iodide (PI), CD11 b (BD Biosciences, #562793) and the isotype control IgG (BD Biosciences, #555748). Flow cytometry analysis was performed on a Millipore Guava flow cytometer (EMD, Millipore). For the ID8 in vivo experiments, ascites was drained from 5-10 mice per group and incubated in ACK buffer (Thermo Fisher) to lyse red blood cells for 10 minutes, then washed. Ascites from each mouse was individually lysed and prepared for flow cytometry. Mononuclear cells collected were cultured for 4 hours in RPMI with 5% Fetal Bovine Serum and in the presence of Cell Stimulation Cocktail (plus protein transport inhibitors; eBioscience). […] Flow cytometry acquisition was performed on an LSRII cytometer (BD Biosciences) and data were analyzed using FlowJo software version 10.2.

[3] = system: YB5 cells; assay: GFP reactivation in YB5 cells (flow cytometry); conditions: YB5 cells, one-time 4-day treatment

`Nc1nc(N[C@H]2CC3CCC2C3)sc1C(=O)c1ccccc1[N+](=O)[O-]` (stereo partly shown) [MC180295] was tested, and the “relative activity to Depsipeptide @ 500 nM %” value ([1]; 500 nM) was 14.10%, the “relative activity to Depsipeptide @ 50 μM %” value ([1]; 50 μM) was 23.32% and the Emax at 1 µM ([1]; Homo sapiens, 24 h, read-out: relative activity to Depsipeptide @ 1 μM %) was 28.8%. For the same compound, the Emax at 5 µM ([1]; Homo sapiens, 24 h, read-out: relative activity to Depsipeptide @ 5 μM %) was 65.4%, the Emax at 10 µM ([1]; Homo sapiens, 24 h, read-out: relative activity to Depsipeptide @ 10 μM %) was 72.8% and the Emax at 25 µM ([1]; Homo sapiens, 24 h, read-out: relative activity to Depsipeptide @ 25 μM %) was 73.3%. The “GFP+ cells” value ([1]; at 500 nM) was ~60%, the cell cycle arrest [2] was “no cell cycle arrest” and the sub-G1 subpopulation [2] was “increase in the sub-G1 subpopulation”. For the same compound, the “concentration at which active (GFP re-expression)” value [3] was 50 nM.
